Data on 30 molecules can be found in ChEMBL document CHEMBL3593176, “Design and biological evaluation of novel 4-(2-fluorophenoxy)quinoline derivatives bearing an imidazolone moiety as c-Met kinase inhibitors” (Bioorg Med Chem, 2015).

Broadly, the IC50 is the concentration that inhibits the measured activity by half. Read a low IC50 as greater potency.

The test system of one assay is HT-29. In words: cells. Conditions: Homo sapiens, HT-29, 72 h.
The nature of assay [1]: cells. Conditions: Homo sapiens, MKN-45, 72 h.
Description: Cytotoxicity against human MKN45 cells assessed as inhibition of cell proliferation after 72 hrs by MTT assay
Assay [2] in a line: cells. Conditions: Homo sapiens, NCI-H460, 72 h.
Description: Cytotoxicity against human H460 cells assessed as inhibition of cell proliferation after 72 hrs by MTT assay
Another assay relates to A549. The assay can be described thus: cells. Conditions: Homo sapiens, A549, 72 h.

The structures appear in SMILES notation.

Description for A549: Cytotoxicity against human A549 cells assessed as inhibition of cell proliferation after 72 hrs by MTT assay
Description for HT-29: Cytotoxicity against human HT-29 cells assessed as inhibition of cell proliferation after 72 hrs by MTT assay

Take `COc1cc2c(Oc3ccc(NC(=O)c4c(C)n(-c5ccccc5)c(=O)n4C)cc3F)ccnc2cc1OCCCN1CCC(C)CC1`: the IC50 in the assay on HT-29 is 0.36 µM; in the assay “cells [1]” it was 0.21 µM; in the assay “cells [2]”, 0.59 µM; with A549, 0.66 µM.
The corresponding values for `COc1cc2c(Oc3ccc(NC(=O)c4c(C)n(-c5ccc(Cl)cc5)c(=O)n4C)cc3F)ccnc2cc1OCCCN1CCC(C)CC1` are 0.17 µM, 0.062 µM, 0.2 µM and 0.42 µM.
In the same order, the values of `COc1cc2c(Oc3ccc(NC(=O)c4c(C)n(-c5ccc(C(F)(F)F)cc5)c(=O)n4C)cc3F)ccnc2cc1OCCCN1CCC(C)CC1` are 0.36 µM, 0.13 µM, 0.41 µM and 0.54 µM.
For the molecule `COc1cc2c(Oc3ccc(NC(=O)c4c(C)n(-c5ccccc5Cl)c(=O)n4C)cc3F)ccnc2cc1OCCCN1CCC(C)CC1`, the IC50 in the assay with HT-29 turned out to be 0.15 µM; in “cells [1]” it was 0.043 µM; in the assay “cells [2]”, 0.18 µM; in the assay on A549, 0.32 µM.
With `COc1ccc(-n2c(C)c(C(=O)Nc3ccc(Oc4ccnc5cc(OCCCN6CCN(C)CC6)c(OC)cc45)c(F)c3)n(C)c2=O)cc1`, the 50% inhibitory concentration (IC50) with HT-29 is 0.56 µM; in the assay “cells [1]”, 0.44 µM; in “cells [2]”, 0.69 µM; in the assay on A549, 0.96 µM.
`COc1cc2c(Oc3ccc(NC(=O)c4c(C)n(-c5ccccc5)c(=O)n4C)cc3F)ccnc2cc1OCCCN1CCCC1`: the IC50 in the assay with HT-29 was found to be 0.94 µM; in “cells [1]”, 0.51 µM; in “cells [2]”, 1.03 µM; with A549, 1.46 µM.
As for `COc1ccc(-n2c(C)c(C(=O)Nc3ccc(Oc4ccnc5cc(OCCCN6CCC(C)CC6)c(OC)cc45)c(F)c3)n(C)c2=O)cc1`, the IC50 with HT-29 was 0.79 µM; in the assay “cells [1]”, 0.49 µM; in “cells [2]” it was 0.94 µM; in the assay on A549, 1.04 µM.
The corresponding values for `COc1cc2c(Oc3ccc(NC(=O)c4c(C)n(-c5ccc(OC(F)(F)F)cc5)c(=O)n4C)cc3F)ccnc2cc1OCCCN1CCN(C)CC1` are 0.27 µM, 0.12 µM, 0.34 µM and 0.44 µM.
In the same order, the values of `COc1cc2c(Oc3ccc(NC(=O)c4c(C)n(-c5ccc(F)c(F)c5)c(=O)n4C)cc3F)ccnc2cc1OCCCN1CCC(C)CC1` are 0.23 µM, 0.095 µM, 0.23 µM and 0.53 µM.
In the same order, the values of `COc1cc2c(Oc3ccc(NC(=O)c4c(C)n(-c5ccccc5)c(=O)n4C)cc3F)ccnc2cc1OCCCN1CCN(C)CC1` are 0.3 µM, 0.19 µM, 0.42 µM and 0.6 µM.
On to `COc1cc2c(Oc3ccc(NC(=O)c4c(C)n(-c5cccc(C(F)(F)F)c5)c(=O)n4C)cc3F)ccnc2cc1OCCCN1CCC(C)CC1`, for which the half-inhibitory concentration (IC50) with HT-29 was determined as 0.52 µM; in the assay “cells [1]”, 0.32 µM; in the assay “cells [2]”, 0.58 µM; with A549, 0.88 µM.
In the same order, the values of `COc1cc2c(Oc3ccc(NC(=O)c4c(C)n(-c5ccccc5C(F)(F)F)c(=O)n4C)cc3F)ccnc2cc1OCCCN1CCC(C)CC1` are 0.14 µM, 0.081 µM, 0.22 µM and 0.45 µM.
In the same order, the values of `COc1cc2c(Oc3ccc(NC(=O)c4c(C)n(-c5ccc(OC(F)(F)F)cc5)c(=O)n4C)cc3F)ccnc2cc1OCCCN1CCC(C)CC1` are 0.4 µM, 0.14 µM, 0.59 µM and 0.62 µM.
The corresponding values for `COc1cc2c(Oc3ccc(NC(=O)c4c(C)n(-c5ccc(Cl)cc5)c(=O)n4C)cc3F)ccnc2cc1OCCCN1CCN(C)CC1` are 0.14 µM, 0.058 µM, 0.17 µM and 0.36 µM.
Regarding `COc1cc2c(Oc3ccc(NC(=O)c4c(C)n(-c5ccc(F)cc5)c(=O)n4C)cc3F)ccnc2cc1OCCCN1CCC(C)CC1`, the IC50 in the assay on HT-29 is 0.24 µM; in “cells [1]” it was 0.084 µM; in “cells [2]”, 0.25 µM; with A549, 0.52 µM.
As for `COc1cc2c(Oc3ccc(NC(=O)c4c(C)n(-c5ccccc5Cl)c(=O)n4C)cc3F)ccnc2cc1OCCCN1CCN(C)CC1`, the 50% inhibitory concentration (IC50) is 0.12 µM in the assay with HT-29, 0.037 µM in “cells [1]”, 0.13 µM in “cells [2]” and 0.31 µM with A549.
The corresponding values for `COc1cc2c(Oc3ccc(NC(=O)c4c(C)n(-c5ccc(Br)cc5)c(=O)n4C)cc3F)ccnc2cc1OCCCN1CCN(C)CC1` are 0.29 µM, 0.12 µM, 0.36 µM and 0.48 µM.
The corresponding values for `COc1cc2c(Oc3ccc(NC(=O)c4c(C)n(-c5ccccc5)c(=O)n4C)cc3F)ccnc2cc1OCCCN1CCOCC1` are 0.74 µM, 0.32 µM, 0.79 µM and 0.98 µM.
In the same order, the values of `COc1cc2c(Oc3ccc(NC(=O)c4c(C)n(-c5ccc(C(F)(F)F)cc5)c(=O)n4C)cc3F)ccnc2cc1OCCCN1CCN(C)CC1` are 0.26 µM, 0.098 µM, 0.36 µM and 0.5 µM.
Regarding `COc1cc2c(Oc3ccc(NC(=O)c4c(C)n(-c5ccc(C)cc5)c(=O)n4C)cc3F)ccnc2cc1OCCCN1CCN(C)CC1`, the 50% inhibitory concentration (IC50) in the assay with HT-29 came out at 0.49 µM; in the assay “cells [1]”, 0.36 µM; in “cells [2]”, 0.51 µM; in the assay on A549 it was 0.83 µM.
In the same order, the values of `COc1cc2c(Oc3ccc(NC(=O)c4c(C)n(-c5cccc(C(F)(F)F)c5)c(=O)n4C)cc3F)ccnc2cc1OCCCN1CCN(C)CC1` are 0.43 µM, 0.2 µM, 0.57 µM and 0.77 µM.
For `COc1cc2c(Oc3ccc(NC(=O)c4c(C)n(-c5ccc(Br)cc5)c(=O)n4C)cc3F)ccnc2cc1OCCCN1CCC(C)CC1`, the IC50 amounted to 0.28 µM in the assay with HT-29, 0.16 µM in the assay “cells [1]”, 0.55 µM in “cells [2]” and 0.68 µM in the assay on A549.
On to `COc1cc2c(Oc3ccc(NC(=O)c4c(C)n(-c5ccc(F)c(Cl)c5)c(=O)n4C)cc3F)ccnc2cc1OCCCN1CCN(C)CC1`, for which the IC50 in the assay with HT-29 was 0.14 µM; in the assay “cells [1]”, 0.073 µM; in “cells [2]”, 0.21 µM; in the assay with A549, 0.38 µM.
The corresponding values for `COc1cc2c(Oc3ccc(NC(=O)c4c(C)n(-c5ccc(F)cc5)c(=O)n4C)cc3F)ccnc2cc1OCCCN1CCN(C)CC1` are 0.19 µM, 0.067 µM, 0.26 µM and 0.43 µM.
In the same order, the values of `COc1cc2c(Oc3ccc(NC(=O)c4c(C)n(-c5ccc(C)cc5)c(=O)n4C)cc3F)ccnc2cc1OCCCN1CCC(C)CC1` are 0.79 µM, 0.43 µM, 0.94 µM and 1.12 µM.
Regarding `COc1cc2c(Oc3ccc(NC(=O)c4c(C)n(-c5ccccc5)c(=O)n4C)cc3F)ccnc2cc1OCCCN1CCCCC1`, the IC50 came out at 0.56 µM in the assay on HT-29, 0.24 µM in “cells [1]”, 0.65 µM in “cells [2]” and 0.79 µM in the assay with A549.
On to `COc1cc2c(Oc3ccc(NC(=O)c4c(C)n(-c5ccc(F)c(F)c5)c(=O)n4C)cc3F)ccnc2cc1OCCCN1CCOCC1`, for which the IC50 came out at 0.39 µM in the assay on HT-29, 0.17 µM in “cells [1]”, 0.54 µM in the assay “cells [2]” and 0.62 µM in the assay on A549.
With `COc1cc2c(Oc3ccc(NC(=O)c4c(C)n(-c5ccccc5C(F)(F)F)c(=O)n4C)cc3F)ccnc2cc1OCCCN1CCN(C)CC1`, the IC50 stood at 0.13 µM with HT-29, 0.069 µM in the assay “cells [1]”, 0.19 µM in “cells [2]” and 0.37 µM in the assay with A549.
Regarding `COc1cc2c(Oc3ccc(NC(=O)c4c(C)n(-c5ccc(F)c(Cl)c5)c(=O)n4C)cc3F)ccnc2cc1OCCCN1CCC(C)CC1`, the IC50 in the assay on HT-29 is 0.2 µM; in “cells [1]”, 0.089 µM; in “cells [2]” it was 0.25 µM; with A549, 0.43 µM.
On to `COc1cc2c(Oc3ccc(NC(=O)c4c(C)n(-c5ccc(F)c(F)c5)c(=O)n4C)cc3F)ccnc2cc1OCCCN1CCN(C)CC1`, for which the IC50 in the assay on HT-29 stood at 0.18 µM; in the assay “cells [1]” it was 0.086 µM; in “cells [2]” it was 0.24 µM; in the assay on A549, 0.4 µM.
